Where two headings read alike, the source gives them in different places.
How the values were obtained:
[1] = tested on: PC-3; assay: NCI-60 screening (SRB); format: cell-based, human; conditions: five-dose
[2] = tested on: 786-0; assay: NCI-60 screening (SRB); format: cell-based, human; conditions: five-dose
[3] = tested on: CAKI-1; assay: NCI-60 screening (SRB); format: cell-based, human; conditions: CAKI-1, five-dose
[4] = tested on: SK-MEL-5; assay: NCI-60 screening (SRB); format: cell-based, human; conditions: SK-MEL-5, five-dose
[5] = tested on: HCT-116; assay: NCI-60 screening (SRB); format: cell-based, human; conditions: five-dose
[6] = tested on: UO-31; assay: NCI-60 screening (SRB); format: cell-based, human; conditions: five-dose
[7] = tested on: NCI-H23; assay: NCI-60 screening (SRB); format: cell-based, human; conditions: five-dose
[8] = tested on: DU-145; assay: NCI-60 screening (SRB); format: cell-based, human; conditions: five-dose
[9] = tested on: MDA-MB-435; assay: NCI-60 screening (SRB); format: cell-based, human; conditions: five-dose
[10] = tested on: NCI-H226; assay: NCI-60 screening (SRB); format: cell-based, human; conditions: five-dose
[11] = tested on: RPMI-8226; assay: NCI-60 screening (SRB); format: cell-based, human; conditions: five-dose
[12] = tested on: HL-60(TB); assay: NCI-60 screening (SRB); format: cell-based, human
[13] = tested on: K-562; assay: NCI-60 screening (SRB); format: cell-based, human
[14] = tested on: HT29; assay: NCI-60 screening (SRB); format: cell-based, human
[15] = tested on: RXF 393; assay: NCI-60 screening (SRB); format: cell-based, human; conditions: five-dose
[16] = tested on: SK-MEL-28; assay: NCI-60 screening (SRB); format: cell-based, human; conditions: five-dose
[17] = tested on: MOLT-4; assay: NCI-60 screening (SRB); format: cell-based, human; conditions: five-dose
[18] = tested on: CNS cancer; assay: cells; format: cell-based
Text: The experimental data allow the assessment of the cytostatic effect, indicated by growth inhibition values ranging between 0 and 100, as well as of the cytotoxic effect, indicated by negative values.
The mean GI50 (molar concentration of the compound that inhibits 50% net cell growth), TGI (molar concentration of the compound leading to the total inhibition), and LC50 (molar concentration of the compound leading to 50% net cell death (presented in negative logarithm)) values across each cell line are shown in Table 2.
The selectivity index (SI), calculated as the ratio between the full panel MG_MID60 (μM) of compounds 4, 6, and 9 by their respective subpanels MG_MID of the cell line (μM), was introduced as a quantification tool for the selectivity of each compound in terms of anticancer effect (Table 3).
Primary anticancer assays were performed according to the NCI protocol, as described elsewhere (see e.g., http://dtp.nci.nih.gov accessed on 1 November 2018). The compounds were added at a single concentration, and the cell cultures were incubated for 48 h. The end point determinations were made with a protein-binding dye, sulforhodamine B (SRB). […] The percentage of growth was evaluated spectrophotometrically versus controls not treated with test agents after 48 h exposure and using SRB protein assay to estimate cell viability or growth. Three antitumor activity dose-response parameters were calculated for each cell line. Furthermore, mean graph midpoints (MG_MID) were calculated for each of the parameters, giving an average activity parameter over all cell lines for the tested compound. For the MG_MID calculation, insensitive cell lines were included with the highest concentration tested.

[19] = tested on: NCI-60 cancer cell line panel; assay: NCI-60 screening (SRB), full panel; format: cell-based, human; conditions: for activity at 10 µM: 60 cell lines, 48 h
Method in brief: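 48 h incubation with compound; SRB protein dye end point; % growth vs untreated ctrl. GI50, TGI, LC50 per line; MG_MID = subpanel mean, insensitive lines set to top tested conc.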

[20] = tested on: OVCAR-4; assay: NCI-60 screening (SRB); format: cell-based, human; conditions: five-dose
[21] = tested on: OVCAR-8; assay: NCI-60 screening (SRB); format: cell-based, human; conditions: five-dose
[22] = tested on: MCF7; assay: NCI-60 screening (SRB); format: cell-based, human; conditions: five-dose
[23] = tested on: SK-MEL-2; assay: NCI-60 screening (SRB); format: cell-based, human; conditions: five-dose
[24] = tested on: NCI-H322M; assay: NCI-60 screening (SRB); format: cell-based, human; conditions: five-dose
[25] = tested on: NCI-H460; assay: NCI-60 screening (SRB); format: cell-based, human; conditions: five-dose
[26] = tested on: BT-549; assay: NCI-60 screening (SRB); format: cell-based, human; conditions: five-dose
[27] = Homo sapiens, read-out: LC50 (the source's name)
[28] = HL-60(TB) (Leukemia), 1 dose 10 µM

Which GI50 ([1]; Homo sapiens) does the source give for `CCN1CCN(C(=O)[C@]23CC[C@@H](C)[C@H](C)[C@H]2C2=CC[C@@H]4[C@@]5(C)C/C(=C/c6cccnc6)C(=O)C(C)(C)[C@@H]5CC[C@@]4(C)[C@]2(C)CC3)CC1` [Compound 9, N-(2-{3-Pyridinylidene}-3-oxoursan-12-en-28-oyl)-ethylpiperazine] here?
Its GI50 is 1490 nM.

And the CC50 [1, 27]?
Its CC50 is 9.92 µM.

What about the TGI [1] of the same compound?
Its TGI is 3.85 µM.

And the GI50 ([2]; Homo sapiens)?
The GI50 was 1980 nM.

What about the TGI [2] of the same compound?
The TGI was 4.37 µM.

What about the TGI [3] of the same compound?
Its TGI is 11.8 µM.

What about the GI50 ([3]; Homo sapiens) of the same compound?
The GI50 was 2120 nM.

What about the CC50 [3, 27] of the same compound?
The CC50 was 41.9 µM.

And the GI50 ([4]; Homo sapiens)?
Its GI50 is 1750 nM.

And the CC50 [4, 27]?
The CC50 was 5.63 µM.

And the TGI [4]?
The TGI was 3.14 µM.

What about the GI50 ([5]; Homo sapiens) of the same compound?
The GI50 was 1690 nM.

And the CC50 [5, 27]?
Its CC50 is 7.43 µM.

What about the TGI [5] of the same compound?
The TGI was 3.55 µM.

What about the GI50 ([6]; Homo sapiens) of the same compound?
Its GI50 is 1360 nM.

And the CC50 [6, 27]?
Its CC50 is 5.19 µM.

What about the TGI [6] of the same compound?
Its TGI is 2.65 µM.

And the GI50 ([7]; Homo sapiens)?
The GI50 was 2130 nM.

And the CC50 [7, 27]?
Its CC50 is 31.8 µM.

What about the TGI [7] of the same compound?
Its TGI is 5.91 µM.

And the GI50 ([8]; Homo sapiens)?
Its GI50 is 2080 nM.

What about the CC50 [8, 27] of the same compound?
The CC50 was 8.53 µM.

What about the TGI [8] of the same compound?
Its TGI is 4.21 µM.

What about the GI50 ([9]; Homo sapiens) of the same compound?
The GI50 was 1700 nM.

What about the CC50 [9, 27] of the same compound?
The CC50 was 7.18 µM.

And the TGI [9]?
Its TGI is 3.49 µM.

And the GI50 ([10]; Homo sapiens)?
Its GI50 is 1890 nM.

What about the CC50 [10, 27] of the same compound?
The CC50 was 8.78 µM.

And the TGI [10]?
The TGI was 4.07 µM.

And the GI50 ([11]; Homo sapiens)?
The GI50 was 2450 nM.

What about the CC50 [11, 27] of the same compound?
Its CC50 is greater than 100 µM.

And the TGI [11]?
Its TGI is 7.38 µM.

And the Growth % [12, 28]?
The Growth % was −38.20%.

What about the cell death [12, 28] of the same compound?
The cell death was 38.20%.

What about the TGI ([12]; HL-60(TB), five-dose) of the same compound?
Its TGI is 8.97 µM.

What about the GI50 ([12]; Homo sapiens, HL-60(TB), five-dose) of the same compound?
The GI50 was 2780 nM.

And the CC50 ([12]; Homo sapiens, HL-60(TB), five-dose, read-out: LC50 (the source's name))?
The CC50 was greater than 100 µM.

What about the GI50 ([13]; Homo sapiens, K562, five-dose) of the same compound?
The GI50 was 2080 nM.

And the CC50 ([13]; Homo sapiens, K562, five-dose, read-out: LC50 (the source's name))?
Its CC50 is greater than 100 µM.

What about the TGI ([13]; five-dose) of the same compound?
Its TGI is 5.00 µM.

What about the GI50 ([14]; Homo sapiens, HT-29, five-dose) of the same compound?
Its GI50 is 1930 nM.

What about the CC50 ([14]; Homo sapiens, HT-29, five-dose, read-out: LC50 (the source's name)) of the same compound?
The CC50 was greater than 100 µM.

And the TGI ([14]; five-dose)?
The TGI was 5.36 µM.

And the GI50 ([15]; Homo sapiens)?
Its GI50 is 1450 nM.

What about the CC50 [15, 27] of the same compound?
The CC50 was 5.53 µM.

And the TGI [15]?
Its TGI is 2.83 µM.

What about the GI50 ([16]; Homo sapiens) of the same compound?
The GI50 was 1740 nM.

And the CC50 [16, 27]?
The CC50 was 5.69 µM.

And the TGI [16]?
The TGI was 3.15 µM.

And the GI50 ([17]; Homo sapiens)?
Its GI50 is 2630 nM.

And the CC50 [17, 27]?
Its CC50 is greater than 100 µM.

And the TGI [17]?
Its TGI is 7.44 µM.

And the “TGI MG_MID” value ([18]; CNS cancer subpanel, five-dose)?
Its value is 4.41 µM.

And the “SI (TGI)” value ([18]; CNS cancer, MG_MID60/subpanel MG_MID)?
The value was 1.20.

And the GI50 ([18]; Homo sapiens, CNS cancer subpanel, five-dose, read-out: GI50 MG_MID)?
Its GI50 is 1710 nM.

What about the CC50 ([18]; Homo sapiens, CNS cancer subpanel, five-dose, read-out: LC50 MG_MID) of the same compound?
Its CC50 is 13.6 µM.

And the “Positive Cytostatic Effect (cell lines with percent growth 0 to 50 / total)” value ([19]; 1 dose 10 µM)?
The value was 33/59.

What about the “Positive Cytotoxic Effect (cell lines with percent growth <0 / total)” value ([19]; 1 dose 10 µM) of the same compound?
The value was 5/59.

And the GI50 ([19]; Homo sapiens, five-dose, bound, read-out: GI50 against all human tumor cells)?
Its GI50 is less than 4000 nM.

What about the GI50 ([19]; Homo sapiens, mean graph midpoint, full panel, five-dose, read-out: GI50 MG_MID60) of the same compound?
The GI50 was 1930 nM.

What about the CC50 ([19]; Homo sapiens, mean graph midpoint, full panel, five-dose, read-out: LC50 MG_MID60) of the same compound?
Its CC50 is 38 µM.

And the activity at 10 µM ([19]; Homo sapiens, 1 dose 10 µM, read-out: Mean Growth, %)?
The activity at 10 µM was 25.3%.

And the activity at 10 µM ([19]; Homo sapiens, 1 dose 10 µM, read-out: Range of Growth, %)?
Its activity at 10 µM is -38.2 to 65.7%.

And the “TGI MG_MID60” value ([19]; mean graph midpoint, full panel, five-dose)?
Its value is 5.29 µM.

And the selectivity class ([19]; toward some individual cell lines at the LC50 level)?
The selectivity class was “moderate selectivity (Ratios between 3 and 6 are indicators of moderate selectivity)”.

What about the GI50 ([20]; Homo sapiens) of the same compound?
The GI50 was 2570 nM.

And the CC50 [20, 27]?
The CC50 was 36.6 µM.

What about the TGI [20] of the same compound?
The TGI was 7.36 µM.

And the GI50 ([21]; Homo sapiens)?
The GI50 was 2320 nM.

What about the CC50 [21, 27] of the same compound?
Its CC50 is greater than 100 µM.

And the TGI [21]?
Its TGI is 6.29 µM.

What about the GI50 ([22]; Homo sapiens) of the same compound?
Its GI50 is 1640 nM.

What about the CC50 [22, 27] of the same compound?
Its CC50 is 7.14 µM.

And the TGI [22]?
The TGI was 3.42 µM.

What about the GI50 ([23]; Homo sapiens) of the same compound?
Its GI50 is 2120 nM.

What about the CC50 [23, 27] of the same compound?
The CC50 was 65.5 µM.

What about the TGI [23] of the same compound?
The TGI was 4.76 µM.

What about the GI50 ([24]; Homo sapiens) of the same compound?
The GI50 was 2280 nM.

And the CC50 [24, 27]?
Its CC50 is 28.8 µM.

And the TGI [24]?
Its TGI is 8.27 µM.

And the GI50 ([25]; Homo sapiens)?
The GI50 was 1780 nM.

And the CC50 [25, 27]?
Its CC50 is 6.69 µM.

What about the TGI [25] of the same compound?
Its TGI is 3.45 µM.

And the GI50 ([26]; Homo sapiens)?
The GI50 was 1690 nM.

What about the TGI [26] of the same compound?
The TGI was 3.59 µM.

— paper PMC8536124 (International Journal of Molecular Sciences, 2021)
